Experimental data reported in patent EP3991729A1, “USE OF AMLEXANOX IN PREPARING ANTI-HEPATITIS VIRUS DRUG” (Marine Biomedical Research Institute Of Qingdao Co., Ltd., priority 2019, dated 2020).
Counter-ions that a name gives are not always drawn.

Key:
293 cells = assay: Cytotoxicity test, MTT assay; assay type: cell-based; settings: Homo sapiens, HEK293; 1 µM, 72h
Experimental: (§1) […]. Various cells in the logarithmic growth phase were seeded in 96-well plates at 6,000 cells/well and cultured for 24h. […]. The dosage of DMSO in the solvent control group was based on the maximum dose of 0.1% used in the test group, with four duplicate wells for each concentration. Cells were treated with the drug for 72h and then added with 20µL 5 mg/mL MTT, cultured at 37°C for 4h, after added 100 µ L triple solution (10% SDS, 5% isobutanol, 12 mM hydrochloric acid), 96-well cell culture plate was placed in an incubator containing 5% CO2 at 37 ± 1°C overnight. OD value at 570nm was measured on a microplate reader.
(§2) The inhibition rate of tumor cell growth was calculated according to the following formula: Inhibition rate(%) = [(OD570controlwell−OD570dosewell)/OD570controlwell] × 100. [formula]

A549 cells = assay: Cytotoxicity test, MTT assay; assay type: cell-based; settings: Homo sapiens, A549; 1 µM, 72h
Experimental: as §1, §2

HCT-116 cells = assay: Cytotoxicity test, MTT assay; assay type: cell-based; settings: Homo sapiens, HCT-116; 1 µM, 72h
Experimental: as §1, §2

Hela cells = assay: Cytotoxicity test, MTT assay; assay type: cell-based; settings: Homo sapiens, 1 µM, 72h, read-out: Inhibition (%) Hel a
Experimental: as §1, §2

HepG2 cells = assay: Cytotoxicity test, MTT assay; assay type: cell-based; settings: Homo sapiens, HepG2; 1 µM, 72h; read-out: Inhibition (%) Hep G2
Experimental: as §1, §2

Huh7 cells = assay: Cytotoxicity test, MTT assay; assay type: cell-based; settings: Homo sapiens, Huh-7; 1 µM, 72h; read-out: Inhibition (%) Hu h7
Experimental: as §1, §2

MCF7 cells = assay: Cytotoxicity test, MTT assay; assay type: cell-based; settings: Homo sapiens, MCF7; 1 µM, 72h; read-out: Inhibition (%) MC F7
Experimental: as §1, §2

MKN45 cells = assay: Cytotoxicity test, MTT assay; assay type: cell-based; settings: Homo sapiens, MKN-45; 1 µM, 72h
Experimental: as §1, §2

B and T cells = assay: Immune cells in blood of HBV-infected mice, flow cytometry; settings: 530 mg/kg/day, once a day, oral gavage, day 9, Figure 19
Experimental: Six-week-old male C57 mice were rapidly injected with 10µg/mouse of viral genomic DNA (genotype A) by tail vein injection in a short period. Viral infection was established using a venous hypertension model and randomly divided into groups. […] At the same time, a blank control was set up, and oral administration in uninfected mice was equivalent to the model group.
On day 9, mice were sacrificed to collect blood stained with flow antibody after fission red. All cells were treated with anti-FcγRIII/ II (purchased from BD Biosciences) in PBS for 30 min. CD3e-FITC (purchased from BD Biosciences). CD4-PE, CD8a-APC-Vio770, and CD34-FITC (GE). CD19-APC, CD11b-PE-Cyanine7, and CD117-efflor 450 (purchased from eBioscience). After staining, the samples were suspended using 500µL PBS and analyzed by BD Aria III flow cytometer.

SMILES	inhibition at 1 µM (293 cells) [%]	inhibition at 1 µM (A549 cells) [%]	inhibition at 1 µM (HCT-116 cells) [%]	inhibition at 1 µM (Hela cells) [%]	inhibition at 1 µM (HepG2 cells) [%]	inhibition at 1 µM (Huh7 cells) [%]	inhibition at 1 µM (MCF7 cells) [%]	inhibition at 1 µM (MKN45 cells) [%]	effect on immune cells in blood (B and T cells)
COc1cccc2c1C(=O)c1c(O)c3c(c(O)c1C2=O)C[C@@](O)(C(=O)CO)C[C@@H]3O[C@H]1C[C@H](N)[C@H](O)[C@H](C)O1 [Adriamyci n Hydrochloride, doxorubicin hydrochloride]	57.9	85.8	71.9	48.8	92.1	76.9	88	39.4	
Nc1ccn([C@@H]2CS[C@H](CO)O2)c(=O)n1 [lamivudine]									had some inhibitory effects on immune cells
